System: AMPAR subunits (GluA1, GluA1/2, GluA2, and GluA2/3)
Assay: Whole-cell patch-clamp recordings, statements over all tested AMPAR subunits
Type: cell-based
Conditions: for reduction in τw des: across all examined subunits; for increase in τw deact / decrease in AMPAR subunit activity (inhibition of the whole-cell current): all tested subunits; for increase in τw deact: 10 mM glutamate for 1 ms; for decrease in AMPAR subunit activity (inhibition of the whole-cell current): 10 mM glutamate, 500 ms protocol
Procedure: The effect of five TC compounds on whole-cell currents of four AMPAR subunits (GluA1, GluA1/2, GluA2, and GluA2/3) was investigated using transfected HEK293T cells. Each compound was applied separately to each subunit, with experiments conducted on 8–10 cells per condition to ensure reproducibility. […] At a glutamate concentration of 10 mM and a 500 ms protocol, approximately 95% of AMPAR channels were open. The A/AI ratio was calculated to compare the results, where A represents normalized current readings and AI indicates the inhibited current following TC compound exposure. […] Following closely, TC-1 inhibited the tested subunits by 5-fold.
A thorough investigation was performed to assess the neuroprotective potential of the TC compounds. The influence of the five TC compounds on the desensitization traces is seen in Figure 4, namely in panels b, d, f, and h. TC-2 caused a substantial reduction in τw des in all receptor subunits, with decreases ranging from 2 to 3 times.
In addition, an evaluation was conducted on the deactivation rates (τw deact) of all the examined chemicals to investigate their impact on the kinetics of deactivation. The chemicals were assessed for their effect on the deactivation kinetics of AMPAR subunits by briefly administering 10 mM glutamate for 1 ms to begin currents. This experimental setup allowed for the observation of τw deact under controlled conditions. […] TC-5 induced an approximately 2-fold increase in τw deact across all four tested subunits. […] These findings highlight the differential impact of TC compounds on deactivation kinetics across AMPAR subunits, shedding light on their potential neuroprotective mechanisms.
The flip isoform was uniformly employed across all AMPAR subunits in this study. These subunits were subcloned into the pRK vector and expressed in Human Embryonic kidney cells sourced (Sigma, München, Germany). HEK293T cells were grown in Dulbecco Modified Eagle Medium (DMEM) (Sigma, München, Germany) containing 10% FBS (fetal bovine serum), 0.1 mg/mL streptomycin, and 1 mM sodium pyruvate (Biological Industries; Beit-Haemek, Israel). HEK293T cells were incubated at 37 °C and 5% CO2 was supplemented to the medium. It was subcultured twice a week until cells reached pass #20. The transfection reagent used was either jetPRIME (Polyplus: New York, NY, USA) or Lipofectamine 2000 (Invitrogen; San Diego, CA, USA). Cells were kept for 36 h. after transfection in 12-well plates. Then, they were replated on coverslips coated with Laminin (1 mg/mL; Sigma, Germany) for electrophysiology recordings. Cells were then seeded in Petri dishes in DMEM supplemented with 10% fetal calf serum and antibiotics and maintained in a humidified incubator at 37 °C and 5% CO2. Highly fluorescent cells were identified and selected for recording post-transfection.
HEK293T cells were recorded for 36–48 h, at a temperature of 22 °C, with a membrane potential of −60 mV. HEK293T cells were recorded 36–48 h after transfection using IPA (Integrated Patch Amplifier) via the […], at a temperature of 22 °C, with a membrane potential of −60 mV. SutterPatch Software v. 1.1.1 (Sutter Instruments, Novato, CA, USA) was used to digitize membrane currents for a short period. The sampling frequency was set to 10 kHz, and the low-pass filter was set to 2 kHz. Borosilicate glass was used to fabricate the patch electrodes with a resistance of 2–4 MΩ. The extracellular solution contained the following (values are in mM): 150 NaCl, 2.8 KCl, 0.5 MgCl2, 2 CaCl2, and 10 HEPES, adjusted to pH 7.4 with NaOH. The pipette solution contained the following (values are in mM): 110 CsF, 30 CsCl, 4 NaCl, 0.5 CaCl2, 10 […], and 10 HEPES, adjusted to pH 7.2 with CsOH. Using double barrel glass (theta tube), glutamate and the solutions of choice were rapidly administered, and the theta tube was mounted on a high-speed piezo solution switcher (Automate Scientific, Berkeley, CA, USA). […]

| SMILES | reduction in τw des | increase in τw deact | decrease in AMPAR subunit activity (inhibition of the whole-cell current) [fold] |
| --- | --- | --- | --- |
| COc1ccc(-c2nc(C(=O)Nc3ccc(OC)c(OC)c3)cs2)cc1 [TC-1] | roughly twofold | around 2 fold | 5 |
| COc1ccc(-c2nc(C(=O)Nc3ccccc3)cs2)cc1 [TC-3] | little effect | weaker effects | ~3 |
| COc1ccc(-c2nc(C(=O)Nc3ccc(C(C)(C)C)cc3)cs2)cc1 [TC-4] | little effect | weaker effects | ~2.5 |
